From patent publication US5118675A, “Quinoxaline phosphono-amino acids” (American Home Products Corporation, priority 1991, dated 1992)

Assays:
NMDA receptor = assay: Displacement of tritiated CPP ([3H] CPP binding) in rat frontal cortex homogenates
Method: CPP binding at 10 μM concentrations. The IC50 calculated for these compounds is as follows: […]

NMDA-lethality = NMDA-lethality model in mice (antagonism of NMDA in vivo, survival); parameters: species or system mouse (male Swiss-albino, CD-1 strain); conditions: Mus musculus, ip, 0.5 h; test compound i.p. 30 min before NMDA 195 mg/kg i.p.; 30 min observation
Method: Male Swiss-albino mice (CD-1 strain, Charles River) 18-22 grams in weight, after 18 hours of food deprivation, were habituated to an observation chamber for 30 minutes. The mice were pretreated with the representative test compound followed thirty minutes later with NMDA, 195 mg/kg, i.p., which is a dose normally causing 90% mortality resulting from motor seizures including uncontrollable hind leg scratching or limbs and/or torso muscle jerking with loss of righting reflex followed by death within the 30 minute observation period after NMDA administration. From the latter, the ED50 for survival is determined.

Compound `NC(Cc1nc2ccccc2nc1CP(=O)(O)O)C(=O)O` (racemic) [Example 1, α-Amino-3-(phosphonomethyl)-2-quinoxalinepropanoic Acid] has an IC50 (NMDA receptor) of 110 nM and an ED50 (NMDA-lethality) of 3.72 mg/kg.
`NC(Cc1nc2cc(Cl)c(Cl)cc2nc1CP(=O)(O)O)C(=O)O` (stereo not drawn) [Example 7, α-Amino-6,7-dichloro-3-(phosphonomethyl)-2-quinoxalinepropanoic Acid] was tested, and the IC50 (NMDA receptor) was 4 nM and the ED50 (NMDA-lethality) was 1.58 mg/kg.
`COc1cc2nc(CC(N)C(=O)O)c(CP(=O)(O)O)nc2cc1OC` (stereo not drawn) [Example 11, α-Amino-6,7-dimethoxy-3-(phosphonomethyl)-2-quinoxalinepropanoic Acid] gave an IC50 (NMDA receptor) of 832 nM.
Compound `Cc1cc2nc(CC(N)C(=O)O)c(CP(=O)(O)O)nc2cc1C` (stereo not drawn) [Example 4, α-Amino-6,7-dimethyl-3-(phosphonomethyl)-2-quinoxalinepropanoic Acid] has an IC50 (NMDA receptor) of 22 nM.
Work on `NC(Cc1nc2cc(F)c(F)cc2nc1CP(=O)(O)O)C(=O)O` (stereo not drawn) [Example 10, α-Amino-6,7-difluoro-3-(phosphonomethyl)-2-quinoxalinepropanoic Acid] yielded an IC50 (NMDA receptor) of 166 nM.
In the case of `N[C@@H](CCC(=O)O)C(=O)O` [L-glutamic acid, reference compound], the IC50 (NMDA receptor) is reported as 64 nM.
Compound `NC(Cc1nc2ccccc2nc1CP(=O)(O)O)C(=O)O` (single isomer, unassigned) [Laevoisomer of Example 3, (-)-α-amino-3-(phosphonomethyl)-2-quinoxalinepropanoic acid] has an IC50 (NMDA receptor) of 29 nM and an ED50 (NMDA-lethality) of 1.52 mg/kg.
In the case of “D(-)-2-amino-5-phosphono-heptanoic acid [D(-)-2-amino-5-phosphonoheptanoic acid, reference compound]”, the IC50 (NMDA receptor) is reported as 639 nM.
`NC(Cc1nc2cc(Cl)ccc2nc1CP(=O)(O)O)C(=O)O` (stereo not drawn) [Example 8, α-Amino-7-chloro-3-(phosphonomethyl)-2-quinoxalinepropanoic Acid] gave an IC50 (NMDA receptor) of 24 nM and an ED50 (NMDA-lethality) of 1.13 mg/kg.
With `NC(Cc1nc2cc3ccccc3cc2nc1CP(=O)(O)O)C(=O)O` (stereo not drawn) [Example 5, α-Amino-3-(phosphonomethyl)-2-benzo[g]quinoxalinepropanoic Acid] the IC50 (NMDA receptor) was 6 nM and the ED50 (NMDA-lethality) was 5.3 mg/kg.
